What all share (assay): DTP human tumour cell line panel, 48 h
The test system of assay [1] is HOP-18 NSCLC.
Assay [2] deals with M19-MEL melanoma.
The subject of assay [3] is RXF-631 renal.
The subject of assay [4] is DMS 273 small cell lung.
The subject of assay [5] is DLD-1 colon.
The test system of assay [6] is LXFL 529 NSCLC.
For assay [7], the system named is SNB-78 CNS.
Assay [8] has as its system MDA-N.
For assay [9], the system named is XF 498 CNS.

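1) Cells in 96-well plates. 2) Compound, 48 h, 5 concentrations. 3) Linear interpolation between surrounding doses. 4) Unreached endpoint = highest concentration. At the GI50, growth is halved. TGI denotes the concentration required for complete inhibition of growth.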

`COC1(OC)C2(Cl)C(Cl)=C(Cl)C1(Cl)C1C2C2CC1(C(=O)O)c1ccccc12` (configuration not stated): the TGI stood at 93.9 µM in [1]; 38.3 µM in assay [2]; 42.8 µM in assay [3]; 41.2 µM in assay [4]; 35.6 µM in [5]; 28 µM in assay [6].
Turning to `COC(=O)C1=CC2C=CC(C1C(=O)OC)C1C(C(=O)OC)=C(C(=O)OC)C(C(=O)OC)=C(C(=O)OC)C21OC` (configuration not stated), the TGI in assay [1], in [2], in assay [3], in assay [4], in [7] and in assay [5] was greater than 100 µM each time. In addition, the TGI in assay [6] was greater than 100 µM.
Take `Nc1ccccc1C(=O)CCC1C(=O)NC(=S)NC1=O`: the TGI in assay [1], in assay [2], in assay [3], in assay [4], in [8] and in assay [5] was greater than 100 µM each time. Also, the TGI in [6] is greater than 100 µM.
As for `N#CC(C(=O)/C(=N\NC(N)=O)C(C#N)c1ccccc1)c1ccccc1` (configuration not stated), the TGI in assay [3], in assay [4], in assay [7], in assay [5] and in [6] was greater than 100 µM each time.
`CC1(C)CCCC(C)(C2CCC3(C)C2C(O)CC2C4(C)CCC(O)C(C)(C)C4CCC23C)O1` (configuration not stated): in assay [8], the TGI is greater than 100 µM.
`NC1=NN(c2ccccc2)C(=O)C1C(=O)C(=O)Nc1ccc(Cl)c(Cl)c1` (configuration not stated): the TGI in [1], in [2], in assay [3], in assay [4], in assay [7] and in [5] was greater than 100 µM each time.
Take `Cc1cc(=O)n(-c2cc3cccccc-3n2)[nH]1`: the TGI in assay [1] is 85.2 µM; in [2], 22.3 µM; in assay [9], 7.46 µM; in assay [5] it was greater than 100 µM; in assay [6] it was 16.9 µM.
Turning to `COC(=O)[C@@H]1Cc2c([nH]c3ccccc23)[C@H](c2ccccc2)N1`, the TGI in [1] was greater than 100 µM; in [2] it was greater than 100 µM; in assay [4], 57.8 µM; in assay [5] it was greater than 100 µM; in assay [6], greater than 100 µM.
As for `CCOc1ccccc1N=Nc1c(-c2ccccc2)nn(C(=O)CC(=O)Nc2cccc(C)c2)c1-c1ccccc1`, the TGI in assay [1], in [2], in assay [9], in assay [3], in [4] and in [7] was greater than 100 µM throughout. For the same compound, the TGI in assay [5] and in assay [6] was greater than 100 µM each time.
Take `O=C1/C(=C/c2ccc(Cl)cc2)CNC/C1=C\c1ccc(Cl)cc1`: the TGI in [1] was 18 µM; in assay [2], 4.81 µM; in assay [9], 7.28 µM; in [3], 12.5 µM; in [4], 5.78 µM; in [8], 16.1 µM. The TGI in assay [7] came to 12.1 µM; in assay [5] it was 6.78 µM; in assay [6], 2.4 µM.
For the compound `COC(=O)C1C(=O)O[C@@H](c2cc(OC)c(OC)cc2OC)C1C(=O)OC` (mixture of isomers), the TGI in assay [2], in [9], in [3], in assay [4], in [7] and in assay [5] was greater than 100 µM each time. This compound registered a concentration for total growth inhibition (TGI) in assay [6] greater than 100 µM.
Take `CC1=CC(C)(C)NN1C1=NS(=O)(=O)c2ccccc2N1C`: the TGI in assay [8] was greater than 100 µM.
In the case of `O=C(Nc1ccc(Cl)cc1Cl)OC(Cn1cncn1)c1ccc(Cl)cc1Cl` (configuration not stated), the concentration for total growth inhibition (TGI) in assay [1] was 41.5 µM; in assay [2] it was 30.8 µM; in assay [9] it was 27.9 µM; in assay [3] it was 33.2 µM; in assay [4], 31.4 µM; in assay [7], 38.6 µM. The TGI in [5] was found to be 35 µM; in assay [6], 30.6 µM.
Take `CNS(=O)(=O)NNS(=O)(=O)c1ccc(OC)cc1`: the TGI in assay [2], in assay [9], in assay [3], in [4], in [5] and in assay [6] was greater than 100 µM in each case.
The compound `O=[N+]([O-])c1cc([N+](=O)[O-])c(Nn2c3ccccc3c3ccccc32)c([N+](=O)[O-])c1` came in with a TGI in assay [8] of 12.2 µM.
Regarding `C/C=C1\CN2CCc3c([nH]c4ccccc34)C2CC1CCO` (configuration not stated), the TGI in assay [1], in assay [2], in assay [9], in assay [3], in assay [4] and in assay [7] was greater than 100 µM in each case. The TGI in assay [5] and in assay [6] was greater than 100 µM each time.
With `CCc1nc2ccc(N=Nc3c(O)ccc4ccccc34)cc2[nH]1`, the TGI in assay [2] amounted to 33.8 µM; in assay [4], 35.3 µM; in assay [8], 51.5 µM; in [7], 32.7 µM; in assay [5], 57.3 µM; in assay [6] it was 24.5 µM.
For `C/C=C1/CC(C)C(C)(O)C(=O)OCC2C(O)CN3CCC(OC1=O)C23` (configuration not stated), in assay [8], the TGI is greater than 100 µM.
Consider `Clc1cccc(C2N3CCCCC3[C@@H]3c4[nH]c5ccccc5c4CCN23)c1` (some centres not stated), for which the TGI was greater than 100 µM in [1]; 48 µM in assay [2]; 40 µM in assay [9]; greater than 100 µM in assay [4]; greater than 100 µM in [5].
Regarding `CC(=O)[C@H]1CCC2[C@@H]3CC=C4C[C@@H]([O-])CC[C@]4(C)C3CC[C@@]21C.CC(=O)[C@H]1CCC2[C@@H]3CC=C4C[C@@H]([O-])CC[C@]4(C)C3CC[C@@]21C.CC(=O)[CH-]C(=O)c1ccccc1.CC(=O)[CH-]C(=O)c1ccccc1.Cl.[Ti+4]` (some centres not stated), the GI50 was 42.9 µM in assay [1]; 43.5 µM in assay [2]; 30.3 µM in [4]; 27.4 µM in assay [5]; 32.1 µM in [6]. The TGI in assay [1], in assay [2], in assay [4], in assay [5] and in [6] was greater than 100 µM each time.

What is called TGI is the concentration at which net growth stops. A low value points to greater sensitivity of the cells. The GI50 is the concentration that inhibits growth by half.

Source of the values: PubChem BioAssay (NCI).
